Assay: gradient 5% acetonitrile 3 min, to 50% in 2 min, to 85% in 15 min, held 3 min, 100 µL/min
Settings: column: Zorbax Extend-C18 2.1 x 50 mm; eluents: water / acetonitrile, 0.1% formic acid
In short: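 Standards, all pure, were combined into mixtures of ~100 molecules and run at 100 μL/min on a Zorbax Extend-C18 column (2.1 × 50 mm, 1.8 μm) with water and acetonitrile, each containing 0.1% formic acid. A coupled quadrupole time-of-flight mass spectrometer operated in positive and negative ionization mode. Retention time values come from computationally picked adduct peaks, each inspected manually.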

Row | Compound | RP-LC retention time
1 | CCc1cccc(C)c1Nc1c(-c2ccc(C)cc2)nc2ncccn12 | 878 s
2 | COc1ccc(S(=O)(=O)N2CCc3c(c(CN(C(C)=O)c4ccccc4)nn3C)C2)cc1Cl | 846 s
3 | Cc1cccc(CNC(=O)c2ccc3c(c2)Sc2ncccc2C(=O)N3C)c1 | 796 s
4 | CCOC(=O)c1c(C)oc2nc(C)nc(NCCCN(C)c3ccccc3)c12 | 701 s
5 | Cc1nc(-c2ccc(N3CCN(C(=O)c4ccco4)CC3)nc2)sc1C | 759 s
6 | COc1ccc(Cn2nnc3cc(C(=O)NCC4CCCO4)ccc32)cc1 (stereo not given) | 733 s
7 | Cc1nn(C)c(=O)c2cc(S(=O)(=O)NCCC3=CCCCC3)cn12 | 966 s
8 | Cc1cc(NC(=O)Cn2nc(C(=O)N3CCCC3)c3ccccc32)ccc1Br | 948 s
9 | O=C(Nc1ccc(-n2cnc(C(=O)N3CCC(Cc4ccccc4)CC3)c2)nc1)C1CC1 | 860 s
10 | Nc1cc(C2CCN(C(=O)Cc3ccc(F)cc3)CC2)no1 | 684 s
11 | Cc1ccc(NC(=O)Cc2c(C)nn(-c3nc(-c4ccc(F)cc4)cs3)c2C)c(C)c1 | 1210 s
12 | COc1ccc(Cl)cc1C(=O)NC1CCN(c2cc(-c3cccs3)[nH]n2)CC1 | 865 s
13 | Cc1cc2nn(CC(=O)Nc3ccccc3)c(=O)n2c(-c2ccc(F)cc2)n1 | 800 s
14 | CN1C(=O)COc2ccc(-c3csc(NC(=O)CCC4CCCCC4)n3)cc21 | 1140 s
15 | COc1ccc(OCc2noc(CNC(=O)c3ccccc3Cl)n2)cc1 | 793 s
16 | O=C(N1CCC(c2nc(C3CCOCC3)no2)CC1)C1(c2ccccc2)CC1 | 817 s
17 | Cc1cccc(CNC(=O)C2(C)Cn3cnc(C(=O)NCc4ccccc4F)c3C(=O)N2C2CC2)c1 (stereo not given) | 772 s
18 | CCCC(=O)Nc1nc(-c2ccc3c(c2)N(C)C(=O)C(C)O3)cs1 (stereo not given) | 831 s
19 | CC(C)(C)NC(=O)c1ccc(-n2cc(CNC(=O)C3CC3)cn2)cc1 | 711 s
20 | CC(C)Cn1c(=O)c2cc(C(=O)NCCCn3cccn3)nn2c2ccccc21 | 831 s
21 | Cc1ccc(N2CCN(S(=O)(=O)c3cc4n(c3)CCCNC4=O)CC2)cc1 | 743 s
22 | O=C(CN1CCN(Cc2ccccc2)C1=O)N1CCN(c2ccccc2F)CC1 | 824 s
23 | COc1ccc(-n2nnc3c(SCc4cccc([N+](=O)[O-])c4)ncnc32)cc1 | 1100 s

Row | Compound | RP-LC retention time
24 | COc1cc2c(cc1OC)C(/C=C/c1ccco1)=NCC2 | 693 s
25 | O=C1CC(c2nc(-c3cccc(Cl)c3)no2)CN1c1ccc(F)cc1 (stereo not given) | 1030 s
26 | Cc1ccc(C(=O)Nc2ccc3c(c2)CCC(=O)N3C)s1 | 712 s
27 | O=S(=O)(Nc1ccc(Oc2nc3ccccc3n3cnnc23)cc1)c1cccc2nsnc12 | 755 s
28 | CC(C)Cn1cc(CCNC(=O)c2cccc(Br)c2)c2cccnc21 | 922 s
29 | O=C(Cn1c(Cc2ccccc2)nc2ccccc21)N1CCCCC1 | 667 s
30 | COc1cc(-c2noc(-c3cn(C)c4ccc(C)cc4c3=O)n2)cc(OC)c1OC | 827 s
31 | O=C(Cn1cnc2nc3c(cc2c1=O)CCCC3)Nc1ccccc1Cl | 720 s
32 | c1ccc(-c2nc(-c3ccc4c(c3)nnn4CCN3CCCCC3)no2)nc1 | 602 s
33 | c1cc(-c2noc(C3CCCC3)n2)cc(N2CCOCC2)n1 | 872 s
34 | Cc1cc(C)c(NC(=O)Cn2cnc3nc(N4CCC(C(=O)NC5CC5)CC4)sc3c2=O)c(C)c1 | 754 s
35 | Cc1nc2nc(-c3ccccc3)nn2c(C)c1CC(=O)N1CCCCC1 | 735 s
36 | O=C(NCCC1=CCCCC1)C1CCN(c2cncnc2N2CCOCC2)CC1 | 656 s
37 | O=C(c1cc(=O)n2c(nc3ccccc32)s1)N1CCN(c2ccccn2)CC1 | 634 s
38 | CCN(Cc1ccccc1)C(=O)Cn1cc2c(n1)CCCCCC2 | 1020 s
39 | O=C(NCCCN1CCOCC1)C1CCCN(c2cnc3nccnc3c2)C1 (stereo not given) | 565 s
40 | Cc1ccc(-n2nc(N3CCN(C(=O)C4CC4)CC3)ccc2=O)cc1C | 749 s
41 | N#Cc1nnn(-c2ccc(Cl)cc2)c1N | 816 s
42 | CCOc1ccc(NC(=O)C2(C)Oc3cccnc3NC2=O)cc1 (stereo not given) | 740 s
43 | CN1CC(=O)N(CC(=O)N2CCN(c3cccc(Cl)c3)CC2)c2ccccc2C1=O | 747 s
44 | CC(NC(=O)C1CCN(c2cncnc2N2CCCC2)CC1)c1ccc(F)cc1 (stereo not given) | 648 s
45 | COc1ccc(CNC(=O)c2ccc3c(=O)n(-c4ccccc4)c(N4CCCC4)nc3c2)c(OC)c1 | 879 s
46 | Cc1sc(-c2nnc(C(C)C)o2)cc1NS(C)(=O)=O | 808 s

Row | Compound | RP-LC retention time
47 | O=S(=O)(c1ccccc1F)N1CCC2(CCN(c3cccnc3)C2)C1 (stereo not given) | 644 s
48 | CCNc1nc(N(C)C)nc(-n2cnc(SC)n2)n1 | 784 s
49 | Clc1ccc(-c2nc3ccccn3c2Nc2ccc3c(c2)OCCO3)cc1 | 708 s
50 | CCN(CC)CCNC(=O)Cn1nc(-c2ccc(Cl)cc2)ccc1=O | 624 s
51 | CC(C)NC(=O)C1CCCN(S(=O)(=O)c2cc(-c3noc(C4CCCC4)n3)cs2)C1 (stereo not given) | 1050 s
52 | Cc1cccc(NC(=O)N2CCN(c3ccc(=O)n(-c4ccccc4)n3)CC2)c1 | 776 s
53 | CCC(C(=O)N1CCN(c2cc(-c3ccc(Cl)cc3)[nH]n2)CC1)c1ccccc1 (stereo not given) | 987 s
54 | COc1ccc(-c2cn3c(CC(=O)N(Cc4ccco4)C4CCCC4)csc3n2)cc1OC | 841 s
55 | CCc1nnc(NC(=O)C2CCCN(c3ncnc4c3nc3n4CCCCC3)C2)s1 (stereo not given) | 724 s
56 | O=C(c1ccc(Br)cc1)N1CCN(C(=O)c2cc(-c3cccnc3)n[nH]2)CC1 | 626 s
57 | C=CCSC(CC)(CC)C(N)=O | 805 s
58 | CCOC(=O)CNC(=O)Cn1nc2n(c(=O)c1=O)CCN2c1ccccc1 | 626 s
59 | Cc1noc([C@@H]2CN(C(=O)Cc3ccsc3)C[C@H]2C(N)=O)n1 | 618 s
60 | CC1CCN(C(=O)C2=CN(c3ccc(F)cc3)c3ccccc3S2(=O)=O)CC1 | 907 s
61 | COC(=O)[C@@H]1Cc2c([nH]c3ccccc23)C(c2ccccc2C)N1 (stereo not given in full) | 685 s
62 | O=C(c1cccs1)N1CCC2(CC1)NC(=O)N(Cc1ccccc1)C2=O | 741 s
63 | Cc1[nH]c2ccccc2c1C(=O)C(=O)N(C)c1ccccc1 | 767 s
64 | Cc1oc(-c2ccc(Cl)cc2)nc1CN1CCCC(C(=O)N2CCN(C(=O)c3ccco3)CC2)C1 (stereo not given) | 679 s
65 | COc1ccc(C2(C(=O)N3CCOc4ccc(N5CCOCC5)cc4C3)CC2)cc1 | 794 s
66 | Cc1nc(N)n(CC(=O)N2CCc3ccccc32)c(=O)c1C | 616 s
67 | Cc1ccc(-n2cc(C(=O)NCc3ccco3)nn2)cc1C | 854 s
68 | CN1CCN(c2c(F)cc(C(=O)Nc3nc(-c4ccccc4)cs3)c(F)c2F)CC1 | 750 s
69 | CC(=O)N1CCC(C2CCN(C(=O)C3CC=CC3)C2)CC1 (stereo not given) | 664 s

Row | Compound | RP-LC retention time
70 | COCCCNC(=O)Cn1c(=O)n(-c2ccccc2)c2ncccc21 | 650 s
71 | Cc1ccc(S(=O)(=O)N2CCC(n3c(-c4ccco4)nc4cccnc43)C2)cc1F (stereo not given) | 954 s
72 | CN1CCn2ccnc2C12CCN(S(=O)(=O)c1ccccc1C(F)(F)F)CC2 | 654 s
73 | CCOCCCNC(=O)c1nc(Nc2ccccc2)c2ccccc2n1 | 1130 s
74 | Cc1noc(C)c1CCNC(=O)CCCN1C(=O)CCn2nc(-c3cn(C)c4ccccc34)cc21 | 732 s
75 | CCCCn1cnc2c(nnn2C)c1=O | 621 s
76 | Cc1cc(Cl)ccc1NC(=O)Cn1c(C)nc2onc(C)c2c1=O | 818 s
77 | Cc1ccc2c(c1)C(C)(C)C(=O)N2CC(=O)N1CCN(c2ncccn2)CC1 | 773 s
78 | CCCC(NC(=O)c1ccc(F)c(F)c1)C(=O)Nc1nc2ccccc2[nH]1 (stereo not given) | 712 s
79 | Cc1cc(C)nc(NS(=O)(=O)c2ccc(NC(=O)NC3CCCCC3)cc2)n1 | 686 s
80 | Cn1c(CNC(=O)c2ccc3c(c2)N(S(C)(=O)=O)CC3)nc2ccccc21 | 604 s
81 | O=C(NCc1cccs1)C1CCCN(S(=O)(=O)c2cc(-c3noc(C4CCC4)n3)cs2)C1 (stereo not given) | 1070 s
82 | CSc1cccc(NC(=O)N2CCC(C)(C(=O)NCc3ccc4c(c3)OCO4)CC2)c1 | 837 s
83 | Cc1ccc(Nc2c(-c3cc(Br)ccc3O)nc3ncccn23)c(C)c1 | 1120 s
84 | Cc1ccc(NC(=O)C2CCN(S(=O)(=O)c3ccc4c(c3)NC(=O)CO4)CC2)c(C)c1 | 732 s
85 | Clc1ccccc1OCc1nn2c(CSc3ccccc3)nnc2s1 | 1020 s
86 | COc1ccc(NC(=O)Nc2cc(-c3cn4cccnc4n3)ccc2OC)cc1 | 651 s
87 | CC(C)c1nccn1C1CN(C(=O)CCCc2c[nH]c3ccccc23)C1 | 631 s
88 | Cc1noc(C)c1CN1CC2(CCCCC2)CC1COc1ccncc1 (stereo not given) | 637 s
89 | CCCS(=O)(=O)N1CCC(c2nnc(C3CC3)s2)CC1 | 684 s
90 | O=C(Nc1cccc(F)c1)c1nnc(CSCC(=O)N2CCN(c3ccccn3)CC2)s1 | 654 s
